# Results published in patent publication US7576054B2, “Compositions and methods for treating bacteria” (Biosynexus Incorporated, priority 2005, dated 2009).
# Entries after “also recorded” stand apart in the source; their conditions may differ. Bridge positions count the residues as written; N and C are the ends. Square brackets hold non-standard residues; d marks the D form. Peptide text beside a SMILES is read from it. * marks the point of attachment. Ileψ(thiazoline)Cys = CC[C@H](C)[C@H](N)C1=N[C@H](C(=O)*)CS1; dOrn = NCCC[C@@H](N)C(=O)O
# Columns and labels:
# S. aureus [1] = assay: Mouse skin infection model: S. aureus infection in abraded mouse skin; assay type: in vivo; conditions: for efficacy compared with independent administration of nisin: PEG ointment or G&W petrolatum base bacitracin formulation, FIG. 2; for additive or synergistic effect when combined with nisin: skin infection, combined with nisin (See Example 1)
# Protocol: (§1) Mouse Skin Infection Model: An overnight culture of S. aureus grown in tryptic soy broth (SA8; range from 1 to 6×10^9 CFUs/mL) was centrifuged at 4000×g for 10 minutes and resuspended in an equal volume of phosphate buffered saline (PBS). The bacteria were diluted to a percent transmittance of 40 (Spectronic 20D+) and diluted a subsequent 1:1000 in PBS for a final bacteria concentration of about 3×10^5. SKH1 (hrhr) hairless mice (Charles River) were sedated with 0.2 mL of ketamine (80 mg/kg) and xylazine (32 mg/kg) delivered intraperitoneally. The upper back of the mice were scrubbed with a 70% alcohol wipe and allowed to dry. Fine abrasions were made on the backs' of the mice between the shoulders using 150 grit sandpaper. Bacteria were swabbed over the abraded area with a sterile, cotton-tipped applicator until the area was saturated with the solution.
# Topical Ointment: 74 g of PEG 400 and 24 g of PEG 3350 were added to a 250 mL glass beaker and heated until all of the PEG 3350 was melted. The solution was stirred well and allowed to cool to room temperature, which results in a smooth, opaque ointment. Powdered nisin and bacitracin were added to the ointment on a w/w basis and stirred until homogenously mixed. For formulations containing mupirocin, 1 g of Bactroban Ointment was weighed into a container and powdered nisin added to 2% or 6% (w/w) and mixed well. Lysostaphin was first dissolve to a concentration of about 150 mg/mL in DI water before mixing into the ointment to give a final concentration of 2% (w/w).
# Treatment of Infected Skin with Topical Ointment: Treatments aimed to eradicate S. aureus skin infections in the mouse model were started on the morning after infection (Day 1). About 0.1 g of the topical ointments containing nisin (0, 2, or 6% w/w), mupirocin (0 or 2%), bacitracin (0 or 500U), and lysostaphin (0 or 2% w/w) were swabbed over the infected area 3 times a day on Days 1 and 2 using a sterile, polyester-tipped applicator. The mice were sacrificed by CO2 asphyxiation on the morning of Day 3 and a 0.5-cm^2 patch of skin around the infected area was excise. The skin sample was dissected and placed into a test tube containing 1 mL of 5 mg/mL proteinase K, 20 mg/mL esterase, and 20 mg/mL activated charcoal in PBS to neutralize the activity of the antibacterial agents. Bacteria were dislodged from the skin sample by sonication: 2 minute treatments per sample with alternating 5 seconds at 3 W and 5 seconds at 0 W in a Virsonic 600 with microtip (VirTis). After mixing by vortex, 50 μL of each sample was streaked onto blood agar plates, incubated at 37° C. overnight, and the colonies were counted and compared to untreated controls.
# For the following data, except where noted in FIG. 2, all antibiotic formulations were in a common polyethylene glycol (PEG) ointment (PEG 400 plus PEG 3350).
# P. aeruginosa [2] = assay: P. aeruginosa infection in abraded mouse skin; assay type: in vivo; conditions: FIG. 4
# [3] = test system: Staphylococcus aureus ATCC #6538; assay: Inoculated partial thickness wounds in pig; assay type: in vivo; conditions: treated twice per day, mean ± SD
# Protocol: Experimental animals. A young female specific pathogen free (SPF: Looper Farms, North Carolina) pig weighing 25-30 kg was kept in house for two weeks prior to initiating the experiment. The animal was fed a basal diet ad libitum and housed individually in animal facilities (meeting American Association for Accreditation of Laboratory Animal) with controlled temperature (19-21° C.) and lights (12 h/12 h LD). The experimental animal protocols used for this study followed the federal guidelines for the care and use of laboratory animals (U.S. Department of Health and Human Services, U.S. Department of Agriculture). Animals were monitored daily for any observable signs of pain or discomfort. […] A small amount of the inoculum suspension was plated onto culture media to quantitate the exact concentration of viable organisms prior to the experiment. […] At each sampling time, sites were cultured quantitatively. […] Serial dilutions were made and scrub solutions were quantitated using the Spiral Plater System that deposits a small defined amount (50 μl) of suspension over the surface of a rotating agar plate. […]
# [4] = test system: S. aureus strain resistant to mupirocin; assay: Mupirocin-resistant S. aureus infection in abraded mouse skin; assay type: in vivo; conditions: FIG. 3
# Protocol: as §1
# Topical Ointment: 74 g of PEG 400 and 24 g of PEG 3350 were added to a 250 mL glass beaker and heated until all of the PEG 3350 was melted. […]
# Treatment of Infected Skin with Topical Ointment: Treatments aimed to eradicate S. aureus skin infections in the mouse model were started on the morning after infection (Day 1). […] After mixing by vortex, 50 μL of each sample was streaked onto blood agar plates, incubated at 37° C. overnight, and the colonies were counted and compared to untreated controls. […]
# S. aureus [5] = assay: In vitro MIC of nisin alone or in combination (log reduction of viable S. aureus); assay type: cell-based; conditions: FIG. 11
# Protocol: In order to determine if nisin could function in a synergistic way with other antimicrobials to treat (e.g., kill and/or inhibit growth of) bacteria in vitro, the minimum inhibitory concentration (MIC) of nisin alone or nisin in combination with either mupirocin, neomycin or gentamicin were tested. The MIC was determined by calculating the log reduction of viable S. aureus following incubation with the amounts of nisin and other antimicrobials as indicated in FIG. 11.
# P. aeruginosa [6] = conditions: previously shown; cited from earlier work
# S. aureus [7] = assay: Suture skin infection (deep tissue infection) mouse model; assay type: in vivo; conditions: deep cut in mouse, S. aureus introduced into the incision; FIG. 13
# Protocol: It was determined whether nisin and mupirocin, either alone or in combination with each other, would be able to treat S. aureus in a deep tissue infection model. A suture skin infection model was generated in which a deep cut (e.g., one needing sutures to close) was made in a mouse and S. aureus introduced into the incision. […] Thus, a combination of nisin and mupirocin can be used to treat a deep tissue infection as well as a […] infection.
# S. aureus [8] = assay: Superficial skin abrasion / superficial wound skin infection model; assay type: in vivo; conditions: for synergy with mupirocin in the skin infection model: used in combination with mupirocin; for synergy with nisin in the skin infection model: used in combination with nisin
# Protocol: Mice provided a superficial skin abrasion and inoculated with S. aureus as described in Example 2 were treated with a composition comprising a combination of 6% nisin and 0.1% gentamicin.
# In order to determine if nisin could function in a synergistic way with other antimicrobials to treat (e.g., kill and/or inhibit growth of) bacteria in a superficial wound model (See Example 2), nisin was used in combination with either neomycin or gallidermin and tested.
# In order to determine if nisin or gallidermin could function in a synergistic way with other antimicrobials to treat (e.g., kill and/or inhibit growth of) bacteria in a superficial wound model (See Example 2), nisin or gallidermin were used in combination with either gentamicin and mupirocin, respectively, and tested. Nisin did synergize with gentamicin and gallidermin did synergize with mupirocin to reduce bacterial counts in the skin infection model.
# In order to determine if mupirocin could function in a synergistic way with bacitracin to treat (e.g., kill and/or inhibit growth of) bacteria in a superficial wound model (See Example 2), mupirocin was used in combination with bacitracin and tested for the ability to treat bacteria.
compound,measurement,setting,value
"C/C(=C\C(=O)OCCCCCCCCC(=O)O)C[C@@H]1OC[C@H](C[C@@H]2O[C@H]2[C@@H](C)[C@H](C)O)[C@@H](O)[C@H]1O [Mupirocin, mupirocin]",decrease in infectious CFUs,"S. aureus [1]; abraded mouse skin, drug alone in PEG ointment, 3 times a day on Days 1 and 2, skin sampled Day 3, vs untreated controls, FIG. 1",3 logs
same,animals cleared of infection,"S. aureus [1]; abraded mouse skin, topical ointment 3 times a day on Days 1 and 2, FIG. 1",Neither drug alone was able to completely clear the infection
same,additional activity added to the nisin formulation,P. aeruginosa [2],does not add any additional activity
same,Av. Count (S. aureus recovered from wounds),[3]; Day 7 post treatment,1.63 ± 1.42 Log cfu/ml
same,Av. Count (S. aureus recovered from wounds),[3]; two days after initial treatment,4.96 ± 0.8 Log CFU/ml
same,activity against mupirocin-resistant S. aureus strain,[4],minimal activity
same,ability to synergize in vitro with nisin,S. aureus [5],"none of the antimicrobials tested (i.e., mupirocin, neomycin, and gentamicin) displayed the ability to synergize in vitro with nisin"
same,activity against P. aeruginosa,P. aeruginosa [6],poor activity
same,efficacy in treating S. aureus in suture infection model,S. aureus [7],very little efficacy
CC[C@H](C)[C@H](N)C1=N[C@H](C(=O)N[C@@H](CC(C)C)C(=O)N[C@H](CCC(=O)O)C(=O)N[C@H](C(=O)N[C@H]2CCCCNC(=O)[C@H](CC(N)=O)NC(=O)[C@@H](CC(=O)O)NC(=O)[C@H](Cc3cnc[nH]3)NC(=O)[C@@H](Cc3ccccc3)NC(=O)[C@H]([C@@H](C)CC)NC(=O)[C@@H](CCCN)NC2=O)[C@@H](C)CC)CS1 [bacitracin] ({Ileψ(thiazoline)Cys}-L[dE]IK[dOrn]I[dF]H[dD]N; lactam 4-C),efficacy compared with independent administration of nisin,S. aureus [1],"None of these antibacterial agents administered independently, or administered in a composition comprising nisin, were significantly more efficacious than the independent administration of nisin"
same,additive or synergistic effect when combined with nisin,S. aureus [1],no additive or synergistic effect was observed
same,synergy with mupirocin in the skin infection model,S. aureus [8],"did not synergize with bacitracin, nor was there an additive benefit; also recorded: does not synergize with or provide additive benefit together with bacitracin"
gallidermin,synergy with mupirocin in the skin infection model,S. aureus [8],did synergize
same,synergy with nisin in the skin infection model,S. aureus [8],did not synergize
gentamicin,synergy with nisin in the skin infection model,S. aureus [8],did synergize
same,ability to synergize in vitro with nisin,S. aureus [5],"none of the antimicrobials tested (i.e., mupirocin, neomycin, and gentamicin) displayed the ability to synergize in vitro with nisin"
lysostaphin,efficacy compared with independent administration of nisin,S. aureus [1],"None of these antibacterial agents administered independently, or administered in a composition comprising nisin, were significantly more efficacious than the independent administration of nisin"
same,additive or synergistic effect when combined with nisin,S. aureus [1],no additive or synergistic effect was observed
neomycin,synergy with nisin in the skin infection model,S. aureus [8],did not synergize
same,ability to synergize in vitro with nisin,S. aureus [5],"none of the antimicrobials tested (i.e., mupirocin, neomycin, and gentamicin) displayed the ability to synergize in vitro with nisin"
